Data reported in patent US10118938B2, “Arsenoplatin anti-cancer agents” (priority 2012, dated 2018).

Assays:
[1] = system: A2780 ovarian cancer cell line (cisplatin sensitive); experiment: In vitro cytotoxicity assay (MTS), A2780; type: cell-based, human; conditions: MTS after 72 hours, ±SD
Experimental: (§1) The MDA-MB-231-mCherry breast cancer cells were cultured in Dulbecco's modified Eagle's medium (DMEM) and supplemented with 5% heat-inactivated fetal bovine serum (FBS), 50 units/ml penicillin, 50 μg/ml streptomycin, 2 mM L-glutamine, and 1 μg/ml blasticidin S (Sigma). The A2780 and A2780^CP ovarian cancer cell lines and the multiple myeloma RPMI 8226 cell line were cultured in RPMI 1640 medium supplemented with 10% FBS, 50 units/ml penicillin, 50 μg/ml streptomycin, 2 mM L-glutamine. The U-87 and HTC-116 cancer cell lines were cultured without antibiotics. Cells were grown at 37° C. in a humidified atmosphere of 5% of CO2.
(§2) B. In Vitro Cytotoxicity Assay for MDA-MB-231mCherry, A270 and A2780CP Cancer Cell Lines.
The cytotoxicities of compound (1), cisplatin, and As2O3 were assessed by MTS assay using the CellTiter 96 Aqueous MTS (Promega). The 100 μL aliquots of cell suspension (1.0×10^5 cells/ml) were plated in 96-well tissue culture plates in the incubator overnight at 37° C. in a humidified atmosphere of 5% of CO2. The serial dilutions of compound (1), cisplatin, and As2O3 in appropriate media were transferred to the cells. The MTS solution (20 μL) was added after 72 hours and the absorbance was measured at 495 nm 4 hours later. Sigmoidal dose response curves were plotted using the GraphPad Prism software. The IC50 values were obtained on at least three independent experiments. In vitro cytotoxicity assay for U-87 and HTC-116 cancer cell line. For the experiment, cells were cultured in RPMI 1640 medium with 5% FBS and 2 mM L-glutamine. […] HCT-116 and U-87 cancer cell were plated in 96 well plates. The cells were plated in four replicates. The densities of the cells were 5000 and 10000 per well in 90 μL for HTC-116 and U-87, respectively. […] The cells were treated with 100, 10, 1, 0.1 0.01, 0.001, 0.0001, 0.00001 and 0.000001 μM of compound (1), cisplatin, and As2O3. […] The plates were shaken for 2 minutes and allowed to sit for activation prior to reading for 10 minutes. Plates were read on Biotek Synergy H1 (Biotek, Wenooski, Vt.) reader capable of luminescence detection.

colon HCT-116 cells = type: cell-based, human; conditions: Cell Titer Glow, 48 hours post drug treatment, ±SD, read-out: IC50 values in μM (±SD), HTC−116
Experimental: as §1
(§3) The cytotoxicities of compound (1), cisplatin, and As2O3 were assessed by MTS assay using the CellTiter 96 Aqueous MTS (Promega). The 100 μL aliquots of cell suspension (1.0×10^5 cells/ml) were plated in 96-well tissue culture plates in the incubator overnight at 37° C. in a humidified atmosphere of 5% of CO2. The serial dilutions of compound (1), cisplatin, and As2O3 in appropriate media were transferred to the cells. The MTS solution (20 μL) was added after 72 hours and the absorbance was measured at 495 nm 4 hours later. Sigmoidal dose response curves were plotted using the GraphPad Prism software. The IC50 values were obtained on at least three independent experiments. In vitro cytotoxicity assay for U-87 and HTC-116 cancer cell line. For the experiment, cells were cultured in RPMI 1640 medium with 5% FBS and 2 mM L-glutamine. […] HCT-116 and U-87 cancer cell were plated in 96 well plates. The cells were plated in four replicates. The densities of the cells were 5000 and 10000 per well in 90 μL for HTC-116 and U-87, respectively. […] The cells were treated with 100, 10, 1, 0.1 0.01, 0.001, 0.0001, 0.00001 and 0.000001 μM of compound (1), cisplatin, and As2O3. After 48 hours post drug treatment all plates were allowed to equilibrate for 30 minutes at room temperature from incubator. Addition of 100 μL of Cell Titer Glow (Promega, Fitchburg, Wis.) reagent was added to the wells. The plates were shaken for 2 minutes and allowed to sit for activation prior to reading for 10 minutes. Plates were read on Biotek Synergy H1 (Biotek, Wenooski, Vt.) reader capable of luminescence detection.

glioblastoma U-87 cells = type: cell-based, human; conditions: Cell Titer Glow, 48 hours post drug treatment, ±SD
Experimental: as §1, §3

[2] = system: multiple myeloma RPMI 8226 cell line; type: cell-based, human; conditions: ±SD
Experimental: as §1, §3

[3] = system: MDA-MB-231-mCherry breast cancer cells; type: cell-based, human; conditions: triple negative breast cancer; MTS after 72 hours; ±SD
Experimental: as §1, §2, §3

[4] = system: A2780^CP ovarian cancer cell line (cisplatin resistant); type: cell-based, human; conditions: for IC50: ovarian cisplatin resistant, MTS after 72 hours, ±SD
Experimental: as §1, §2, §3

[5] = Linkage isomerization in [D6]DMSO solution by NMR; type: physicochemical; conditions: compound (5) dissolved in [D6]DMSO, room temperature; S-isomer = compound (5), N-isomer = compound (6)
Text: Solution NMR and X-ray crystallography confirm that the Pt—As bond remained intact. Crystals suitable for a single crystal X-ray analysis were obtained when compound (5) was synthesized in a 1:1 water/methanol mixture, where the SCN^− ion is bound to Pt(II) through the sulfur atom (FIG. 1D). […] Assignments of chemical shifts for the S- and N-bound isomers signals are based on multidimensional ^195Pt and ^15N NMR spectroscopy on sample of compound (5) which is synthesized using thiocyanate enriched in ^13C and ^15N at 99% (FIG. 2).
Cisplatin, K2[PtCl4], DMSO, methanol, acetonitrile, propionitrile and As2O3 were purchased from Sigma-Aldrich and used without further purification. Media for the cell cultures and all other cell supplements were purchased from Invitrogen. The following spectrometers were used: NMR: Bruker Avance-III 600 and 500 MHz; chemical shifts (^1H, ^13C) were referenced to tetramethylsilane at 0.000 ppm ^1H and ^13C if it was present, and to residual solvent signal for samples in which TMS was absent (for [D6]DMSO, δH=2.50 ppm and δC=39.5 ppm). […] UV/Vis electron absorbance measurements were performed on a Perkin Elmer Lambda 650 spectrophotometer. […]

[6] = Solubility of the isolated complex; type: physicochemical
Experimental: Cisplatin (300 mg, 1.00 mmol) or K2[PtCl4] (415 mg, 1.00 mmol) was added to 125 cm^3 of 9:1 CH3CN/H2O (v/v). The mixture was stirred at 90° C. Once the platinum compound was dissolved, 396 mg As2O3(2.00 mmol) was added to the solution, and the reaction mixture was stirred at 90° C. for 72 hours. The resulting mixture was filtered, and the filtrate was left at room temperature in a glass beaker for approximately 4 weeks until crystals formed. Crystals suitable for a single crystal X-ray analysis were retrieved from solution. The solution was filtered, washed with CH3CN:H2O (9:1 mixture), and the obtained crystals were dried in a dessicator. Yield 350 mg product (75%; 23% when cisplatin is used). […] Elemental analysis (% calcd., found for C7H18.5AsClN3.5O6Pt): C (15.20, 15.24), H (3.37, 3.36), N (8.86, 8.69). NMR: ^1H NMR (600 MHz, [D6]DMSO, 25° C.) δ: 8.91 (s, 2H—OH), 8.15 (s, 2H—NH), 2.13 (s, 6H—CH3). ^13C NMR (150 MHz, [D6]DMSO, 25° C.): δ 172.1 (C-1, C-3), 171.4 (C-5, C-7), 22.5 (C-6, C-8), 16.6 (C-2, C-4). ^15N NMR (60 MHz, from the ^1H-^15N HSQC, [D6]DMSO, referenced to ^15NH4Cl, 25° C.): δ 106.4 (N-1, N-2), ^195Pt NMR (129 MHz, [D6]DMSO, 25° C.), δ: −3589 (s, 1Pt) ppm. UV/Vis ((methanol-water=1:1): λ1=283 nm (ε=4062 dm^3 mol^−1 cm^−1), λ2=247 nm (ε=3621 dm^3 mol^−1 cm^−1), sh. 260 nm.
LC/ESI-MS data were recorded every 24 hours. The color gradually turned yellow and ultimately colorless over the 4 day period. The resulting mixture was filtered and left to sit (pH roughly 2) at 25° C., and, within a week, crystals suitable for single crystal X-ray analysis appeared. The solution was filtered again, washed with H2O, dried, and weighed (212 mg 44%).
Compound (1) obtained in Example 2 (100 mg 0.18 mmol) was dissolved in 4 cm^3 of methanol and added to an equal-molar solution of KSCN (17.6 mg 0.180 mmol) in 4 cm^3 of water. The reaction mixture was allowed to stir at 50° C. for 5 hours. The mixture was filtered and the solution was left standing at room temperature until crystals appeared. The obtained crystals were removed by filtration. Yield: 60.00 mg (52%). Elemental analysis (% calcd., found for PtC5H10N3O4SAs): C (12.56, 12.37), H (2.11, 1.97), N (8.78, 8.56). NMR data: ^1H NMR (600 MHz, [D6]DMSO): δ 2.21 (s, 6H, CH3), 7.70 (s, 2H, NH), 9.20 (s, 2H, OH). ^13C NMR (150 MHz, [D6]DMSO) δ 17.5 (CH3), 117.7 (SCN), 172.6 (CO); ^195Pt NMR (129 MHz, [D6]DMSO) δ −3861 ppm (s, 1Pt); UV/Vis (methanol-water=1:1): λ1=285 nm (ε=4217 dm^3 mol^−1 cm^−1); λ2=225 nm (ε=15919 dm^3 mol^−1 cm^−1), shoulder at 265 nm.

[7] = system: panel of human cancer cell lines; experiment: Anticancer activity in a panel of human cancer cell lines; type: cell-based
Experimental: as §1
The cytotoxicities of compound (1), cisplatin, and As2O3 were assessed by MTS assay using the CellTiter 96 Aqueous MTS (Promega). The 100 μL aliquots of cell suspension (1.0×10^5 cells/ml) were plated in 96-well tissue culture plates in the incubator overnight at 37° C. in a humidified atmosphere of 5% of CO2. The serial dilutions of compound (1), cisplatin, and As2O3 in appropriate media were transferred to the cells. The MTS solution (20 μL) was added after 72 hours and the absorbance was measured at 495 nm 4 hours later. […] The plates were shaken for 2 minutes and allowed to sit for activation prior to reading for 10 minutes. Plates were read on Biotek Synergy H1 (Biotek, Wenooski, Vt.) reader capable of luminescence detection.

Question: What does the source list for `N.N.[Cl][Pt][Cl]` [Cisplatin, Cis-diamminedichloroplatinum(II)]?
Answer: IC50 [1]: 3.1 ± 1.1 µM; IC50 (colon HCT-116 cells): 5.5 ± 1.3 µM; IC50 (glioblastoma U-87 cells): 9.6 ± 0.8 µM; IC50 [2]: 1.9 ± 0.1 µM; IC50 [3]: 22.3 ± 2.8 µM; IC50 [4]: 47.3 ± 2.1 µM

Question: For “[Pt(μ-NHC(CH3)O)2(NCS)As(OH)2] [Compound (6)]”, which “share of isomer in equilibrium mixture” value [5] is on record?
Answer: 36%

Question: Which “share of isomer in equilibrium mixture” value [5] does the source give for “[Pt(μ-NHC(CH3)O)2(SCN)As(OH)2] [Compound (5)]” here?
Answer: 64±1.2%

Question: And the “solubility in organic solvents” value [6]?
Answer: DMSO and methanol

Question: With “[Pt(μ-NHC(CH3)O)2ClAs(OH)2] [Compound (1)]” as the compound, how does the IC50 [1] read?
Answer: 20.3 ± 4 µM

Question: What about the “anticancer activity in a panel of human cancer cell lines” value [7] of the same compound?
Answer: significant anticancer activity

Question: And the IC50 (colon HCT-116 cells)?
Answer: 1.6 ± 0.4 µM

Question: And the IC50 (glioblastoma U-87 cells)?
Answer: 0.37 ± 0.11 µM

Question: And the IC50 [2]?
Answer: 4.5 ± 1 µM

Question: What about the IC50 [3] of the same compound?
Answer: 9.5 ± 0.1 µM

Question: And the “resistance factor (RF)” value ([4]; ovarian A2780 and A2780^CP cell lines, RF value of <2 denotes no cross-resistance)?
Answer: 1.1

Question: And the IC50 [4]?
Answer: 21.4 ± 1.8 µM

Question: And the “solubility in organic solvents” value [6]?
Answer: soluble in DMSO, methanol, ethanol

Question: And the solubility in water [6]?
Answer: partially in water

Question: Which “anticancer activity in a panel of human cancer cell lines” value [7] does the source give for “[Pt(μ-NHC(CH3CH2)O)2ClAs(OH)2] [Compound (2)]” here?
Answer: significant anticancer activity

Question: And the “solubility in organic solvents” value [6]?
Answer: soluble in methanol, DMSO

Question: What about the solubility in water [6] of the same compound?
Answer: partially soluble in H2O

Question: With arsenic trioxide [As2O3] as the compound, how does the IC50 [1] read?
Answer: 17.1 ± 1.5 µM

Question: What about the IC50 (colon HCT-116 cells) of the same compound?
Answer: 9.4 ± 0.9 µM

Question: What about the IC50 (glioblastoma U-87 cells) of the same compound?
Answer: 1.6 ± 2.9 µM

Question: And the IC50 [2]?
Answer: 7.1 ± 0.2 µM

Question: And the IC50 [3]?
Answer: 11.9 ± 2.3 µM

Question: And the IC50 [4]?
Answer: 21.6 ± 1.4 µM
